Test results reported in PubChem BioAssay AID1963429 (Molecular Pharmacology Branch, DTP, NCI, 2024).

System: 126254-015-R-J1-PDC complex spheroid growth, % test/control
Experiment: Anticancer human tumor 126254-015-R-J1-PDC patient-derived soft tissue sarcoma cell line growth inhibition [Asc]
Details: for IC50: curve of first compound; for viability, T/C: stronger effect = lower value
Description: Multicellular complex tumor spheroid response to apoptosis pathway targeting inhibitors Alrizomadlin, Pelcitoclax, and Dasminapant in combination with a variety of drugs and investigational agents in selected tumor cell lines
The MDM2 inhibitor alrizomadlin, the Bcl-2/Bcl-xL inhibitor pelcitoclax, and the IAPs inhibitor dasminapant were evaluated both individually and in combination with standard of care and investigational anticancer small molecules within a complex spheroid model of solid tumors. . Complex spheroids include a stromal component modeled by human endothelial cells (HUVEC) and fibroblasts modeled by human mesenchymal stem cells (MSCs). The concentration ranges selected for each drug and investigational agent were based upon clinically achievable concentrations if the clinical Cmax of the agent was known.
Compounds. The drugs and investigational agents: alrizomadlin (APG-115; NSC831270), pelcitoclax (APG-1252; NSC835773), dasminapant (APG-1387;NSC834197), TAK-243 (NSC785004), copanlisib (NSC809693), olaparib (NSC753686), talazoparib (NSC767125), cobimetinib (NSC 768068), eltanexor (KPT-8602, NSC 794443), abemaciclib (NSC 768073), sotorasib (NSC818433), adagrasib (NSC 831453), MRTX-1133 (NSC 836407), Iadademestat (ORY1001, NSC 806812), and RMC-4630 (NSC839698), were obtained from the NCI Developmental Therapeutics Program Chemical Repository. The FDA-approved anticancer drug set is available from the Developmental Therapeutics Program at https://dtp.cancer.gov/organization/dscb/obtaining/available plates.htm. […] The stock solutions were prepared in dimethyl sulfoxide (DMSO, Sigma-Aldrich, St. Louis, MO, cat. D2650) at 800-fold the tested concentration and stored at -70 degrees C prior to their use. All drugs and investigational agents were tested over a range starting from a high concentration at or near the clinical Cmax and decreasing in half-log increments. If the clinical Cmax for an agent had not been determined, the highest concentration tested was 10 microM.
The patient-derived cancer (PDC) cell lines include five colon adenocarcinomas: 186277-243-T-J2-PDC, 616215-338-R-J1-PDC, 439559-082-T-J2-PDC, 463943-066-T-J2-PDC, and 519858-162-T-J1-PDC; three pancreatic carcinomas: 323965-272-R-J2-PDC, 521955-158-R6-J3-PDC, and 521955-158-R2-J5-PDC; two uterine sarcomas: 327498-152-R-J2-PDC and 993429-296-R-J1-PDC; two rhabdomyosarcomas: 755483-174-R-J1-PDC and 772245-204-R-J1-PDC; two soft tissue sarcomas: 126254-015-R-J1-PDC and 494315-158-R-J1-PDC; two malignant fibrous histiocytomas: 317291-083-R-J1-PDC and 596521-263-R-J1-PDC; two breast carcinomas: 171881-019-R-J1-PDC and 885512-296-R-J2-PDC; and one ovarian carcinoma: 6556581-035-R-J-PDC were obtained from the NCI PDMR, (https://pdmr.cancer.gov). The established cell lines HSSY-2 synovial sarcoma (RRID:CVCL 8719), SYO-1 synovial sarcoma (RRID:CVCL_7146), MPNST malignant peripheral neural sheath tumor were obtained from the Sloan Kettering Institute. The following established cell lines were purchased from the American Type Culture Collection (ATCC, Manassas, VA), Sor the received from the NCI repository:, PANC-1 pancreatic carcinoma (CRL-1469, RRID:CVCL_0480), OVCAR-5 ovarian carcinoma (RRID:CVCL_1628), OVCAR-8 ovarian carcinoma (RRID:CVCL_1629), , MCF-7 breast carcinoma (CRL-12584, RRID:CVCL_0031), MDA-MB-231 breast carcinoma (CRL-12532, RRID:CVCL_0062), NCI-H1876 small cell lung carcinoma (CRL-5902, RRID:CVCL_1503), NCI-H510A small cell lung carcinoma (HTB-184, RRID:CVCL_1565), NCI-H1417 (CRL-5869, RRID:CVCL_1469), and NCI-H196 small cell lung carcinoma (CRL-5823, RRID:CVCL_1509). Dr. Peter Houghton (Greehey Children's Cancer Research Institute, University of Texas Health Science Center, San Antonio, TX) provided Rh-18 rhabdomyosarcoma (RRID:CVCL_1659). Pooled donor human umbilical vein endothelial cells (HUVEC, Lonza, cat. CC-2519) and human mesenchymal stem cells (hMSC, Lonza, cat. PT-2501) were purchased from Lonza (Walkersville, MD).
Cell Culture. […]

[1] = second compound 0.03 µM, first compound 0.00316 µM
[2] = second compound 0.03 µM, first compound 0.01 µM
[3] = second compound 0.03 µM, first compound 0.0316 µM
[4] = second compound 0.03 µM, first compound 0.1 µM
[5] = second compound 0.0949 µM, first compound 0.00316 µM
[6] = second compound 0.0949 µM, first compound 0.01 µM
[7] = second compound 0.0949 µM, first compound 0.0316 µM
[8] = second compound 0.0949 µM, first compound 0.1 µM
[9] = second compound 0.3 µM, first compound 0.00316 µM
[10] = second compound 0.3 µM, first compound 0.01 µM
[11] = second compound 0.3 µM, first compound 0.0316 µM
[12] = second compound 0.3 µM, first compound 0.1 µM
[13] = second compound 0.949 µM, first compound 0.00316 µM
[14] = second compound 0.949 µM, first compound 0.01 µM
[15] = second compound 0.949 µM, first compound 0.0316 µM
[16] = second compound 0.949 µM, first compound 0.1 µM
[17] = second compound 3 µM, first compound 0.00316 µM
[18] = second compound 3 µM, first compound 0.01 µM
[19] = second compound 3 µM, first compound 0.0316 µM
[20] = second compound 3 µM, first compound 0.1 µM
[21] = second compound 0.03 µM, first compound 0.316 µM
[22] = second compound 0.03 µM, first compound 1 µM
[23] = second compound 0.0949 µM, first compound 0.316 µM
[24] = second compound 0.0949 µM, first compound 1 µM
[25] = second compound 0.3 µM, first compound 0.316 µM
[26] = second compound 0.3 µM, first compound 1 µM
[27] = second compound 0.949 µM, first compound 0.316 µM
[28] = second compound 0.949 µM, first compound 1 µM
[29] = second compound 3 µM, first compound 0.316 µM
[30] = second compound 3 µM, first compound 1 µM
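Note: spheroids exposed to compound for seven days.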
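Throughout, for viability, T/C: 100% = DMSO vehicle control wells.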

SMILES | IC50 (second compound 0.03 µM) [nM] | IC50 (second compound 0.0949 µM) [nM] | IC50 (second compound 0.3 µM) [nM] | IC50 (second compound 0.949 µM) [nM] | IC50 (second compound 3 µM) [nM] | viability, T/C [1] [%] | viability, T/C [2] [%] | viability, T/C [3] [%] | viability, T/C [4] [%] | viability, T/C [5] [%] | viability, T/C [6] [%] | viability, T/C [7] [%] | viability, T/C [8] [%] | viability, T/C [9] [%] | viability, T/C [11] [%] | viability, T/C [12] [%] | viability, T/C [15] [%] | viability, T/C [16] [%] | viability, T/C [19] [%] | viability, T/C [20] [%] | other results
Cn1ncnc1[C@H]1c2n[nH]c(=O)c3cc(F)cc(c23)N[C@@H]1c1ccc(F)cc1 + CCN1C(C(=O)NC23CCC(C(=O)O)(CC2)CC3)C(c2cccc(Cl)c2F)C2(C(=O)Nc3cc(Cl)ccc32)C12CCCCC2 | > 100 | > 100 | > 100 | > 100 | > 100 | 88 | 96.5 | 83.9 | 75.4 | 88.4 | 78.2 | 84.7 | 68 | 104 | 80.7 | 75.2 | 95.8 | 90.5 | 82 | 81.6 | viability, T/C (second compound 0.03 µM, first compound 0.000316 µM): 88.6%; viability, T/C (second compound 0.03 µM, first compound 0.001 µM): 108%; viability, T/C (second compound 0.0949 µM, first compound 0.000316 µM): 101%; viability, T/C (second compound 0.0949 µM, first compound 0.001 µM): 102%; viability, T/C (second compound 0.3 µM, first compound 0.000316 µM): 97%; viability, T/C (second compound 0.3 µM, first compound 0.001 µM): 111%; viability, T/C [10]: 81.7%; viability, T/C (second compound 0.949 µM, first compound 0.000316 µM): 95.3%; viability, T/C (second compound 0.949 µM, first compound 0.001 µM): 90.9%; viability, T/C [13]: 95.6%; viability, T/C [14]: 86%; viability, T/C (second compound 3 µM, first compound 0.000316 µM): 96.3%; viability, T/C (second compound 3 µM, first compound 0.001 µM): 103%; viability, T/C [17]: 89.9%; viability, T/C [18]: 84.8%
O=C(c1cc(Cc2n[nH]c(=O)c3ccccc23)ccc1F)N1CCN(C(=O)C2CC2)CC1 + CCN1C(C(=O)NC23CCC(C(=O)O)(CC2)CC3)C(c2cccc(Cl)c2F)C2(C(=O)Nc3cc(Cl)ccc32)C12CCCCC2 | > 10000 | > 10000 | > 10000 | > 10000 | > 10000 | – | – | 95.7 | 87.7 | – | – | 95.5 | 100 | – | 98.4 | 90.9 | 90 | 97 | 88.8 | 90.5 | viability, T/C [21]: 90.3%; viability, T/C [22]: 74.5%; viability, T/C (second compound 0.03 µM, first compound 3.16 µM): 84.1%; viability, T/C (second compound 0.03 µM, first compound 10 µM): 60%; viability, T/C [23]: 87.7%; viability, T/C [24]: 97.4%; viability, T/C (second compound 0.0949 µM, first compound 3.16 µM): 83.2%; viability, T/C (second compound 0.0949 µM, first compound 10 µM): 59.2%; viability, T/C [25]: 92.2%; viability, T/C [26]: 83.6%; viability, T/C (second compound 0.3 µM, first compound 3.16 µM): 77.2%; viability, T/C (second compound 0.3 µM, first compound 10 µM): 59%; viability, T/C [27]: 93.6%; viability, T/C [28]: 83.9%; viability, T/C (second compound 0.949 µM, first compound 3.16 µM): 73.8%; viability, T/C (second compound 0.949 µM, first compound 10 µM): 59.3%; viability, T/C [29]: 93.7%; viability, T/C [30]: 85.4%; viability, T/C (second compound 3 µM, first compound 3.16 µM): 73.1%; viability, T/C (second compound 3 µM, first compound 10 µM): 70.5%
O=C(c1ccc(F)c(F)c1Nc1ccc(I)cc1F)N1CC(O)([C@@H]2CCCCN2)C1 + CCN1C(C(=O)NC23CCC(C(=O)O)(CC2)CC3)C(c2cccc(Cl)c2F)C2(C(=O)Nc3cc(Cl)ccc32)C12CCCCC2 | 552 | 622 | 570 | 638 | 641 | 100 | 108 | 97.2 | 96.2 | 105 | 109 | 107 | 97.8 | 107 | 112 | 82.9 | 106 | 86.2 | 100 | 87.2 | viability, T/C [21]: 65.6%; viability, T/C [22]: 33.2%; viability, T/C [23]: 68.9%; viability, T/C [24]: 36.8%; viability, T/C [10]: 106%; viability, T/C [25]: 68.8%; viability, T/C [26]: 34.3%; viability, T/C [13]: 102%; viability, T/C [14]: 110%; viability, T/C [27]: 63.5%; viability, T/C [28]: 41.8%; viability, T/C [17]: 99.5%; viability, T/C [18]: 99.7%; viability, T/C [29]: 69.2%; viability, T/C [30]: 38.2%
